Legend:
cerebral circulation = experiment: Effect on cerebral circulation in dogs anesthetized by chloralose-urethane (Experiment 1, Table I); format: in vivo
mice = experiment: in vivo; format: in vivo
in vivo = format: in vivo; settings: mouse, in vivo, mice
[1] = test system: vertebral blood flow and coronary blood flow; experiment: Effects on mean blood pressure, vertebral blood flow and coronary blood flow, intravenous, dogs anesthetized with pentobarbital (Experiment 3, Table 3); format: in vivo
Protocol: Effects on mean blood pressure (hereinafter referred to as MBP), vertebral blood flow (hereinafter referred to as VBF) and coronary blood flow (hereinafter referred to as Cor.BF), when administered intravenously:
By using dogs anesthetized with pentobarbital, VBF and Cor. BF were measured with an electromagnetic flowmeter. Blood pressure at the femoral artery was measured.

[2] = test system: hypertensive action of norepinephrine; experiment: Antagonism against hypertensive action of norepinephrine, intra-duodenal administration (Experiment 4, Table 5); format: in vivo, dogs
Protocol: Drugs were administered intra-duodenally.

[3] = Effects on MBP and partial oxygen pressure (PO2) in coronary venous blood, intra-duodenal administration (Experiment 4, Table 4)
Protocol: (§1) Antagonism against hypertensive action of norepinephrine and effects on MBP and partial oxygen pressure (referred to hereinafter as PO2) in coronary venous blood, in case of intra-duodenal administration:
(§2) By using dogs anesthetized by pentobarbital, blood pressure at the femoral artery was measured. […] Antagonism against hypertensive active in case of norepinephrine administration (3g/kg i.v.) was investigated also. Drugs were administered intra-duodenally.

[4] = test system: partial oxygen pressure in coronary venous blood; experiment: as above
Protocol: as §1, §2

physchem = settings: water
[5] = 1 mg/kg i.d., 1/2 hour post-administration
[6] = 1 mg/kg i.d., 1 hour post-administration
[7] = 1 mg/kg i.d., 2 hour post-administration
[8] = 1 mg/kg i.d., 3 hour post-administration
[9] = 1 mg/kg i.d., 5 hour post-administration
[10] = 1 mg/kg i.d., 8 hour post-administration
[11] = 1 mg/kg i.d., Pre-administration (baseline)
[12] = 10 mg/kg i.d., 1/2 hour post-administration
[13] = 10 mg/kg i.d., 1 hour post-administration
[14] = 10 mg/kg i.d., 2 hour post-administration
[15] = 10 mg/kg i.d., 3 hour post-administration
[16] = 10 mg/kg i.d., 5 hour post-administration
[17] = 10 mg/kg i.d., 8 hour post-administration
[18] = 10 mg/kg i.d., Pre-administration (baseline)

CCOCN1C(C)=C(C(=O)OCC)C(c2cccc([N+](=O)[O-])c2)C(C(=O)OCC)=C1C [A, diethyl 1-ethoxymethyl-2,6-dimethyl-4-(3-nitrophenyl)-1,4-dihydropyridine-3,5-dicarboxylate]
Carotid blood flow Duration (cerebral circulation; 0.1 mg/Kg i.v.): 120 min
Carotid blood flow Increase (cerebral circulation; 0.1 mg/Kg i.v.): 80%
Mean Blood Pressure Decrease (cerebral circulation; 0.1 mg/Kg i.v.): 9%
Regional Cerebral blood flow Duration (cerebral circulation; 0.1 mg/Kg i.v.): 120 min
Regional Cerebral blood flow Increase (cerebral circulation; 0.1 mg/Kg i.v.): 8.6 μV
Vertebral Blood Flow Increase (cerebral circulation; 0.1 mg/Kg i.v.): 120%
Vertebral blood flow Duration (cerebral circulation; 0.1 mg/Kg i.v.): 100 min
MLD (Minimum lethal dose) (mice; i.p.): > 3000 mg/kg
MLD (Minimum lethal dose) (mice; p.o.): > 5000 mg/kg

CCOC(=O)C1=C(C)NC(C)=C(C(=O)OCC)C1c1cccc([N+](=O)[O-])c1 [B]
Carotid blood flow Duration (cerebral circulation; 0.01 mg/Kg i.v.): 30 min
Carotid blood flow Increase (cerebral circulation; 0.01 mg/Kg i.v.): 83%
Mean Blood Pressure Decrease (cerebral circulation; 0.01 mg/Kg i.v.): 29%
Regional Cerebral blood flow Duration (cerebral circulation; 0.01 mg/Kg i.v.): 30 min
Regional Cerebral blood flow Increase (cerebral circulation; 0.01 mg/Kg i.v.): 9.2 μV
Vertebral Blood Flow Increase (cerebral circulation; 0.01 mg/Kg i.v.): 130%
Vertebral blood flow Duration (cerebral circulation; 0.01 mg/Kg i.v.): 30 min
LD50 (in vivo; ip): 525 mg/kg
LD50 (in vivo; po): 5000 mg/kg
Coronary Blood Flow Duration ([1]; 0.001 mg/kg i.v.): 5 min
Coronary Blood Flow Increase ([1]; 0.001 mg/kg i.v.): 58 Δ%
Mean Blood Pressure Decrease ([1]; 0.001 mg/kg i.v.): -15 ΔmmHg
Vertebral Blood Flow Increase ([1]; 0.001 mg/kg i.v.): 20 Δ%
Coronary Blood Flow Duration ([1]; 0.01 mg/kg i.v.): 30 min
Coronary Blood Flow Increase ([1]; 0.01 mg/kg i.v.): 141 Δ%
Mean Blood Pressure Decrease ([1]; 0.01 mg/kg i.v.): -35 ΔmmHg
Vertebral Blood Flow Increase ([1]; 0.01 mg/kg i.v.): 144 Δ%
Percent inhibition against increase of blood pressure caused by norepinephrin [2, 5]: 79%
Percent inhibition against increase of blood pressure caused by norepinephrin [2, 6]: 78%
Percent inhibition against increase of blood pressure caused by norepinephrin [2, 7]: 79%
Percent inhibition against increase of blood pressure caused by norepinephrin [2, 8]: 77%
Percent inhibition against increase of blood pressure caused by norepinephrin [2, 9]: 63%
Percent inhibition against increase of blood pressure caused by norepinephrin [2, 10]: 48%
water-solubility (in words) (Water-solubility): almost unsoluble in water
MBP [3, 11]: 101
MBP ([3]; 1 mg/kg i.d., change, 1/2 hour post-administration): -39
MBP ([3]; 1 mg/kg i.d., change, 1 hour post-administration): -43
MBP ([3]; 1 mg/kg i.d., change, 2 hour post-administration): -42
MBP ([3]; 1 mg/kg i.d., change, 3 hour post-administration): -32
MBP ([3]; 1 mg/kg i.d., change, 5 hour post-administration): -27
MBP ([3]; 1 mg/kg i.d., change, 8 hour post-administration): -12
PO2 in coronary venous blood [4, 5]: 34.6
PO2 in coronary venous blood [4, 6]: 37.7
PO2 in coronary venous blood [4, 7]: 39.3
PO2 in coronary venous blood [4, 8]: 38.9
PO2 in coronary venous blood [4, 9]: 32.7
PO2 in coronary venous blood [4, 10]: 25.0
PO2 in coronary venous blood [4, 11]: 17.4

CCOC(=O)C1=C(C)N(CCOS(=O)(=O)[O-])C(C)=C(C(=O)OCC)C1c1cccc([N+](=O)[O-])c1.[Na+] [D, sodium β-[2,6-dimethyl-3,5-bis(ethoxycarbonyl)-4-(3-nitrophenyl)-1,4-dihydropyridine-1-yl]-ethyl sulfate]
Coronary Blood Flow Duration ([1]; 0.1 mg/kg i.v.): 20 min
Coronary Blood Flow Increase ([1]; 0.1 mg/kg i.v.): 67 Δ%
Mean Blood Pressure Decrease ([1]; 0.1 mg/kg i.v.): -5 ΔmmHg
Vertebral Blood Flow Increase ([1]; 0.1 mg/kg i.v.): 21 Δ%
Coronary Blood Flow Duration ([1]; 0.3 mg/kg i.v.): 60 min
Coronary Blood Flow Increase ([1]; 0.3 mg/kg i.v.): 72 Δ%
Mean Blood Pressure Decrease ([1]; 0.3 mg/kg i.v.): -12 ΔmmHg
Vertebral Blood Flow Increase ([1]; 0.3 mg/kg i.v.): 75 Δ%
Coronary Blood Flow Duration ([1]; 1 mg/kg i.v.): ≥ 120 min
Coronary Blood Flow Increase ([1]; 1 mg/kg i.v.): 137 Δ%
Mean Blood Pressure Decrease ([1]; 1 mg/kg i.v.): -35 ΔmmHg
Vertebral Blood Flow Increase ([1]; 1 mg/kg i.v.): 169 Δ%
effects on cerebral and coronary blood flow and blood pressure (in words) ([1]; administered intravenously): excellent effects as increasing the cerebral blood flow and coronary blood flow and at the same time showed hypotensive activity
duration of activities (in words) ([1]; administered intravenously, compared with known compounds): prolonged for a long period of time when compared with known compounds
Percent inhibition against increase of blood pressure caused by norepinephrin [2, 12]: 69%
Percent inhibition against increase of blood pressure caused by norepinephrin [2, 13]: 84%
Percent inhibition against increase of blood pressure caused by norepinephrin [2, 14]: 89%
Percent inhibition against increase of blood pressure caused by norepinephrin [2, 15]: 89%
Percent inhibition against increase of blood pressure caused by norepinephrin [2, 16]: 85%
Percent inhibition against increase of blood pressure caused by norepinephrin [2, 17]: 79%
solubility (physchem): ~400 mg/mL
water-solubility (in words) (Water-solubility): excellent water-solubility
MBP [3, 18]: 110
MBP ([3]; 10 mg/kg i.d., change, 1/2 hour post-administration): -11
MBP ([3]; 10 mg/kg i.d., change, 1 hour post-administration): -21
MBP ([3]; 10 mg/kg i.d., change, 2 hour post-administration): -32
MBP ([3]; 10 mg/kg i.d., change, 3 hour post-administration): -43
MBP ([3]; 10 mg/kg i.d., change, 5 hour post-administration): -4.3
MBP ([3]; 10 mg/kg i.d., change, 8 hour post-administration): -40
PO2 in coronary venous blood [4, 12]: 34.7
PO2 in coronary venous blood [4, 13]: 37.2
PO2 in coronary venous blood [4, 14]: 39.7
PO2 in coronary venous blood [4, 15]: 43.3
PO2 in coronary venous blood [4, 16]: 43.2
PO2 in coronary venous blood [4, 17]: 40.0
PO2 in coronary venous blood [4, 18]: 17.8
duration time ([4]; compared with compounds B or C): much longer than those of compounds B or C
absorption in case of peroral administration ([4]; peroral (intra-duodenal), compared with compounds B or C): more easily absorbed than compounds B or C

CCOC(=O)C1=C(C)N(CC(=O)O)C(C)=C(C(=O)OCC)C1c1cccc([N+](=O)[O-])c1 [sodium α-[3,5-bis(ethoxycarbonyl)-2,6-dimethyl-4-(3'-nitrophenyl)-1,4-dihydro-1-pyridinyl]acetate]
water-solubility (in words) (Water-solubility): easily soluble in water

COC(=O)C1=C(C)NC(C)=C(C(=O)OC)C1c1ccccc1[N+](=O)[O-] [C]
Carotid blood flow Duration (cerebral circulation; 0.01 mg/Kg i.v.): 30 min
Carotid blood flow Increase (cerebral circulation; 0.01 mg/Kg i.v.): 90%
Mean Blood Pressure Decrease (cerebral circulation; 0.01 mg/Kg i.v.): 28%
Regional Cerebral blood flow Duration (cerebral circulation; 0.01 mg/Kg i.v.): 30 min
Regional Cerebral blood flow Increase (cerebral circulation; 0.01 mg/Kg i.v.): 8.2 μV
Vertebral Blood Flow Increase (cerebral circulation; 0.01 mg/Kg i.v.): 120%
Vertebral blood flow Duration (cerebral circulation; 0.01 mg/Kg i.v.): 30 min

CCOC(=O)C1=C(C)NC(C)=C(C(=O)OCC)C1c1ccccc1C(F)(F)F [E, 3,5-Dicarboethoxy-1,4-dihydro-2,6-dimethyl-4-(2-trifluoromethylphenyl)pyridine]
Coronary Blood Flow Duration ([1]; 0.001 mg/kg i.v.): 10 min
Mean Blood Pressure Decrease ([1]; 0.001 mg/kg i.v.): -16 ΔmmHg
Vertebral Blood Flow Increase ([1]; 0.001 mg/kg i.v.): 74 Δ%
Coronary Blood Flow Duration ([1]; 0.01 mg/kg i.v.): 45 min
Mean Blood Pressure Decrease ([1]; 0.01 mg/kg i.v.): -44 ΔmmHg
Vertebral Blood Flow Increase ([1]; 0.01 mg/kg i.v.): 144 Δ%

COc1ccc(Cc2nccc3cc(OC)c(OC)cc23)cc1OC [Papaverine]
Carotid blood flow Duration (cerebral circulation; 1.0 mg/Kg i.v.): 6 min
Carotid blood flow Increase (cerebral circulation; 1.0 mg/Kg i.v.): 120%
Mean Blood Pressure Decrease (cerebral circulation; 1.0 mg/Kg i.v.): 18%
Regional Cerebral blood flow Duration (cerebral circulation; 1.0 mg/Kg i.v.): 7 min
Regional Cerebral blood flow Increase (cerebral circulation; 1.0 mg/Kg i.v.): 8.2 μV
Vertebral Blood Flow Increase (cerebral circulation; 1.0 mg/Kg i.v.): 120%
Vertebral blood flow Duration (cerebral circulation; 1.0 mg/Kg i.v.): 6 min

Source: patent US4021434A, “Sodium β-[2,6-dimethyl-3,5-bis(ethoxycarbonyl)-4-(3-nitrophenyl)-1,4-dihyd ropyridine-1-yl]ethyl sulfate” (Yamanouchi Pharmaceutical Co., Ltd., priority 1972, dated 1977)
